In brackets after ≈: the same amount, converted by molar mass.
Legend:
[1] = Citrate buffer formulation; assay type: physicochemical
[2] = Therapeutic silica model: dose levels and lung pharmacokinetic comparison; assay type: in vivo, C57BL/6 mice; details: Oral Gavage (PO) 30.0 mg/kg; mice
Description: Briefly, acclimated 20-22 g female C57BL/6 mice were administered silica on day 1 by the intratracheal route. On the tenth day, treatment was initiated with either saline or nintedanib. […] Sham and silica control groups received saline either IN or PO. Five animals were enrolled into sham groups, 10 animals enrolled into each PO dose groups, and 13 animals were enrolled into each IN dosing group. […] All animals were euthanized on day 30d. Body weights were collected throughout the study, with lung weights at termination. Flexivent was performed to determine elastance (lung function; Table 59). Left lungs were extracted, stained as assessed for parenchymal collagen (Table 60) and α-smooth muscle actin (αSMA; Table 61), while right lungs were assessed for interleukin-1β (IL-1β; Table 62).
Intranasal (IN) dose levels were selected by comparing lung pharmacokinetics following IN dosing to lung pharmacokinetics determined following 30 mg/kg oral gavage (PO).

[3] = Aqueous solubility assessment of salts; assay type: physicochemical; details: primary screen samples
[4] = HBr and HCl salts-filter compatibility study; assay type: physicochemical; details: 0.22 μm PTFE filter; 3% PG solution; glass vials, ambient room condition
Description: HBr and HCl salts-filter compatibility study: this study was conducted to assess the compatibility of the HBr and the HCl salts with various membrane filters. […] The glass vials were stored at ambient room condition and visual appearance was periodically inspected.

[5] = Therapeutic bleomycin model: dose levels and lung pharmacokinetic comparison; assay type: in vivo, Sprague Dawley rats; details: rat
[6] = 0.5 mg/mL solubility assessment (filtered/unfiltered); assay type: physicochemical; details: 0.5 mg/mL experiment; for pH: listed as HBr
[7] = Pattern stability screen of potential salts (40° C./75% RH, XRPD); assay type: physicochemical
Description: XRPD analysis was carried out on a PANalytical X'pert pro, scanning the samples between 3 and 35° 20. The material was gently compressed and loaded onto a multi-well plate with Kapton or Mylar polymer film to support the sample.
Primary Salt Screening. […] The solvent systems shown in Table were selected for salt screening. For sulfonic acids MEK was used instead of methanol and acetone:water 50:50 (v/v) was used instead of IPA:water to avoid any potential genotoxic impurities. Ca. […] If the acid was insoluble in the selected solvent, a slurry was used. If the acid was a liquid it was added to the API slurry from a stock solution in the allocated solvent. The mixtures of API/counterion/solvent were temperature cycled between ambient and 40° C. in 4 hour cycles for ca. 3 days. Any solids present were isolated and allowed to dry at ambient conditions, for ca. 30 minutes prior to analysis by XRPD. Where solutions were obtained they were evaporated to obtain solid material.

[8] = Solid state and chemical stability of nintedanib HBr and HCl salts through 6 months; assay type: physicochemical; details: for Weight loss: TGA/DSC
Text: Table 24 and Table 25 summarize the total impurities (by HPLC), polymorphic form (by X-ray powder diffraction) and, where applicable, weight loss (by TGA/DSC) for both the HCl and HBr salt forms. […] There were no changes in polymorphic form for both salt forms stored at 25 C/60% RH condition.

[9] = 7 day stability testing of salts (40° C./75% RH, 80° C., ambient light; HPLC purity, XRPD); assay type: physicochemical; details: for Purity (%) / XRPD pattern after 7 day stability testing: listed as HBr salt
Description: High Performance Liquid Chromatography-Ultraviolet Detection (HPLC-UV): Instrument: Dionex Ultimate 3000; Column: Acquity CSH C18 100 mm×2.1 mm 1.7 μm; Column Temperature: 50° C.; Autosampler Temperature: Ambient; UV wavelength: 210 nm; Injection Volume: 4 μL; Flow Rate: 0.6 mL/min; Mobile Phase A: 0.1% formic acid in water; Mobile Phase B: 0.1% formic acid in acetonitrile. The HPLC method used the gradient in Table 2.
FT-IR appeared to be consistent with the structure. […] The material was physically stable to changes in temperature and humidity when stored for one week.
A new, poorly crystalline pattern was produced when stored at 40° C./75% RH—Pattern 4.
Purity of these materials remained unchanged (as shown in Table) apart from the sample stored at ambient light, where a 0.5% drop in purity was observed.

[10] = Disproportionation/hydration studies (pH, XRPD pattern); assay type: physicochemical; details: for pH Pre-Agitation: listed as HBr salt
Text: No XRPD data could be compiled on the hydration or disproportionation of the salt due to the high solubility in water and acetone/water mixtures.
The salt only remained Pattern 1 at 0.3 aw. New patterns 6 and 7 are likely hydrated due to the high water activity conditions for production.

[11] = Solvent solubility screen; assay type: physicochemical; details: thermodynamic from solid, read-out: Approximate Solubility
Description: Between each addition, the mixture was checked for dissolution and where no dissolution was apparent, the mixture was heated to ca. 40° C. and checked again. Samples where the material dissolved, were left to evaporate. Any solids produced from evaporation samples were analyzed by XRPD in order to assess the polymorphic form.
The solvent systems used during the solvent solubility screen, together with the corresponding ICH Class, are detailed in Table 4.

[12] = Human inhaled dose projection vs Ofev 150 mg oral; details: human projection
[13] = 0.5 mg/mL citrate buffer experiments, listed as HBr
[14] = 40° C./75% RH, 2 months, listed as Nintedanib HBr salt
[15] = 40° C./75% RH, 6 months, listed as Nintedanib HBr salt

Structure (SMILES): COC(=O)c1ccc2c(c1)NC(=O)/C2=C(\Nc1ccc(N(C)C(=O)CN2CCN(C)CC2)cc1)c1ccccc1 [Nintedanib HBr]
- Initial pH [1, 13]: 4.83
- pH 1 h [1, 13]: 4.82
- attempt to solubilize in citrate buffer ([1]; pH 4.8 buffer, ca. 0.5 mg/mL (Nintedanib)): unsuccessful
- Lung AUC [2]: 7.4 mg·h/kg
- Lung Cmax [2]: 1.1 µg/g
- pH (aqueous solubility measurement) [3]: 3.95
- solubility ([3]; water, thermodynamic from solid, read-out: Solubility (aqueous)): ~5000 µg/mL
- visual appearance after filtration [4]: no change in appearance through 1 month
- Lung AUC ([5]; Oropharyngeal (OP) 0.05 mg/kg): 1.6 mg·h/kg
- Lung Cmax ([5]; Oropharyngeal (OP) 0.05 mg/kg): 1.4 µg/g
- Lung AUC ([5]; Oropharyngeal (OP) 0.25 mg/kg): 7.8 mg·h/kg
- Lung Cmax ([5]; Oropharyngeal (OP) 0.25 mg/kg): 7.0 µg/g
- Lung AUC ([5]; Oropharyngeal (OP) 0.375 mg/kg): 11.6 mg·h/kg
- Lung Cmax ([5]; Oropharyngeal (OP) 0.375 mg/kg): 10.5 µg/g
- concentration for filtered sample compared to unfiltered ([6]; listed as HBr salt): 94%
- pH ([6]; Filtered): 5.31
- pH ([6]; Unfiltered): 5.12
- XRPD pattern after 72 hrs 40° C./75% RH ([7]; Initial pattern 3, listed as HBr): 3
- XRPD pattern after 72 hrs 40° C./75% RH ([7]; Initial pattern 4): 4
- XRPD pattern after 72 hrs 40° C./75% RH ([7]; Initial pattern 5): 5
- Polymorphic form ([8]; 25° C./60 % RH, 1 week): Pattern 1
- Total impurities ([8]; 25° C./60 % RH, 1 week, listed as Nintedanib HBr salt): 0.40%
- Polymorphic form ([8]; 25° C./60 % RH, 2 months): Pattern 1
- Total impurities ([8]; 25° C./60 % RH, 2 months, listed as Nintedanib HBr salt): 0.42%
- Polymorphic form ([8]; 25° C./60 % RH, 4 weeks): Pattern 1
- Total impurities ([8]; 25° C./60 % RH, 4 weeks, listed as Nintedanib HBr salt): 0.33%
- Polymorphic form ([8]; 25° C./60 % RH, 6 months): Pattern 1
- Total impurities ([8]; 25° C./60 % RH, 6 months, listed as Nintedanib HBr salt): 0.47%
- Polymorphic form ([8]; 25° C./60 % RH, Initial): Pattern 1
- Weight loss ([8]; 25° C./60 % RH, Initial, listed as Nintedanib HBr salt): 0.23%
- Total impurities ([8]; 40° C./75% RH, 1 week, listed as Nintedanib HBr salt): 0.43%
- Weight loss ([8]; 40° C./75% RH, 2 months): 4.12%
- Polymorphic form [8, 14]: Pattern 4
- Total impurities [8, 14]: 0.41%
- Weight loss ([8]; 40° C./75% RH, 4 weeks): 1.33%
- Weight loss ([8]; 40° C./75% RH, 6 months): 3.72%
- Polymorphic form [8, 15]: Pattern 4
- Total impurities [8, 15]: 0.44%
- Weight loss ([8]; 40° C./75% RH, Initial, listed as Nintedanib HBr salt): 0.23%
- Purity (%) ([9]; 40° C./75% RH, 7 day stability testing): 99.7%
- XRPD pattern after 7 day stability testing ([9]; 40° C./75% RH): mixture of Pattern 1 and 4
- XRPD pattern after 7 day stability testing ([9]; 80° C. and ambient conditions/light): remain Pattern 1
- Purity (%) ([9]; 80° C., 7 day stability testing): 99.6%
- Purity (%) ([9]; Ambient, 7 day stability testing): 99.2%
- Purity (%) ([9]; Input): 99.7%
- drop in purity ([9]; stored at ambient light, 7 day): 0.5%
- Pattern (disproportionation/hydration) ([10]; Water Activity 0.3): 1
- pH Pre-Agitation ([10]; Water Activity 0.3 (acetone/water)): 4.84
- Pattern (disproportionation/hydration) ([10]; Water Activity 0.6): 4
- pH Pre-Agitation ([10]; Water Activity 0.6 (acetone/water)): 5.38
- Pattern (disproportionation/hydration) ([10]; Water Activity 0.9): New pattern (Pattern 6)
- pH Pre-Agitation ([10]; Water Activity 0.9 (acetone/water)): 5.56
- Pattern (disproportionation/hydration) ([10]; Water Activity 1): New pattern (Pattern 7)
- pH Pre-Agitation ([10]; Water Activity 1.0 (water)): 2.27

Structure (SMILES): COC(=O)c1ccc2c(c1)NC(=O)/C2=C(\Nc1ccc(N(C)C(=O)CN2CCN(C)CC2)cc1)c1ccccc1 [Nintedanib, methyl (3Z)-3-[[4-[methyl-[2-(4-methylpiperazin-1-yl)acetyl]amino]anilino]-phenylmethylidene]-2-oxo-1H-indole-6-carboxylate]
- solubility ([11]; 1-butanol, 40 °C, organic solvent or mixture): < 10000 µg/mL
- solubility ([11]; 1-propanol, 40 °C, organic solvent or mixture): < 10000 µg/mL
- solubility ([11]; 2-propanol, 40 °C, organic solvent or mixture): < 11000 µg/mL
- solubility ([11]; 40 °C, aqueous with cosolvent or surfactant or cyclodextrin, 40% Methanol: 60% Water (% v/v)): < 10000 µg/mL
- solubility ([11]; 50% 2-propanol: 50% water (% v/v), 40 °C, aqueous with cosolvent or surfactant or cyclodextrin): < 10000 µg/mL
- solubility ([11]; N,N′-dimethylacetamide, organic solvent or mixture): 26000 µg/mL (≈ 48.2 mM)
- solubility ([11]; THF, 40 °C, organic solvent or mixture): < 10000 µg/mL
- solubility ([11]; acetone, 40 °C, organic solvent or mixture): < 10000 µg/mL
- solubility ([11]; acetonitrile, 40 °C, organic solvent or mixture): < 10000 µg/mL
- solubility ([11]; anisole, 40 °C, organic solvent or mixture): < 10000 µg/mL
- solubility ([11]; dichloromethane, organic solvent or mixture): 17000 µg/mL (≈ 31.5 mM)
- solubility ([11]; dimethylsulfoxide, 40 °C, organic solvent or mixture): < 10000 µg/mL
- solubility ([11]; ethanol, 40 °C, organic solvent or mixture): < 10000 µg/mL
- solubility ([11]; ethyl acetate, 40 °C, organic solvent or mixture): < 10000 µg/mL
- solubility ([11]; ethyl ether, 40 °C, organic solvent or mixture): < 10000 µg/mL
- solubility ([11]; heptane, 40 °C, organic solvent or mixture): < 10000 µg/mL
- solubility ([11]; isopropyl acetate, 40 °C, organic solvent or mixture): < 10000 µg/mL
- solubility ([11]; methanol, 40 °C, organic solvent or mixture): < 11000 µg/mL
- solubility ([11]; methylethyl ketone, 40 °C, organic solvent or mixture): < 10000 µg/mL
- solubility ([11]; methylisobutyl ketone, 40 °C, organic solvent or mixture): < 10000 µg/mL
- solubility ([11]; n-hexane, 40 °C, organic solvent or mixture): < 10000 µg/mL
- solubility ([11]; tert-butylmethyl ether, 40 °C, organic solvent or mixture): < 11000 µg/mL
- solubility ([11]; toluene, 40 °C, organic solvent or mixture): < 10000 µg/mL
- solubility ([11]; water, 40 °C, water): < 10000 µg/mL
- device loaded dose resulting in the same lung AUC as the 150 mg oral dose [12]: 0.04 mg
- device loaded dose resulting in the same plasma AUC as a 150 mg oral dose [12]: 0.42 mg
